Patent publication US10208047B2, “Tertiary alcohol imidazopyrazine BTK inhibitors” (Merck Sharp & Dohme Corp., priority 2014, dated 2019)

These compounds were tested against BTK enzyme (recombinant full-length BTK, hBTK) (Homo sapiens (Human), UniProt Q06187) (assay: Btk enzyme activity assay, LANCE TR-FRET). Settings: 50 pM hBTK, 2 μM biotin-A5-peptide, 25 μM ATP, 60 minute compound & enzyme incubation, compound range 1 μM to 0.017 nM, read-out: BTK binding IC50.
Sequence of BTK enzyme (recombinant full-length BTK, hBTK) (Q06187 whole entry): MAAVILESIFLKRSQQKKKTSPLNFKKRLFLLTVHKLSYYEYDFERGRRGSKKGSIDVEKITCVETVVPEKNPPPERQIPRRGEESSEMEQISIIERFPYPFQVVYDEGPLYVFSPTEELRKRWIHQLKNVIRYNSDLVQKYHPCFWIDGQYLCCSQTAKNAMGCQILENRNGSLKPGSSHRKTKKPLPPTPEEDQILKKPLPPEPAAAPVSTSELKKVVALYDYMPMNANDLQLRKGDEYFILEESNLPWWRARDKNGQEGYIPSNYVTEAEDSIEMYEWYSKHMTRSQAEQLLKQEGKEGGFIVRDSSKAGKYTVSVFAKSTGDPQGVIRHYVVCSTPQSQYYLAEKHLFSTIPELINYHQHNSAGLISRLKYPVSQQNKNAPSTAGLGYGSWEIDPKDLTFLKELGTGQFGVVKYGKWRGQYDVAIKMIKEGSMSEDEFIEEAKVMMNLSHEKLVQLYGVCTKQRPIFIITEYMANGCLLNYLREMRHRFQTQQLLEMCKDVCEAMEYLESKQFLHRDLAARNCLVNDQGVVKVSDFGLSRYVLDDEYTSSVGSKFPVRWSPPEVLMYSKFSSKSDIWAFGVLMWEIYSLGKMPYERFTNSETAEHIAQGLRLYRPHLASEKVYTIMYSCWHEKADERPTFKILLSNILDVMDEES
Format: biochemical
Method: Btk Enzyme Activity Assay Methods
BTK enzymatic activity was determined with the LANCE (Lanthanide Chelate Excite) TR-FRET (Time-resolved fluorescence resonance energy transfer) assay. In this assay, the potency (IC50) of each compound was determined from an eleven point (1:3 serial dilution; final compound concentration range in assay from 1 μM to 0.017 nM) titration curve using the following outlined procedure. To each well of a black non-binding surface Corning 384-well microplate (Corning Catalog #3820), 5 nL of compound (2000 fold dilution in final assay volume of 10 μL) was dispensed, followed by the addition of 7.5 μL of 1× kinase buffer (50 mM Hepes 7.5, 10 mM MgCl2, 0.01% Brij-35, 1 mM EGTA, 0.05% BSA & 1 mM DTT) containing 5.09 pg/μL (66.67 pM) of BTK enzyme (recombinant protein from baculovirus-transfected Sf9 cells: full-length BTK, 6HIS-tag cleaved). Following a 60 minute compound & enzyme incubation, each reaction was initiated by the addition of 2.5 μL 1× kinase buffer containing 8 μM biotinylated “A5” peptide (Biotin-EQEDEPEGDYFEWLE-NH2) (SEQ.ID.NO.: 1), and 100 μM ATP. The final reaction in each well of 10 μL consists of 50 pM hBTK, 2 μM biotin-A5-peptide, and 25 μM ATP. Phosphorylation reactions were allowed to proceed for 120 minutes. Reactions were immediately quenched by the addition of 20 uL of 1× quench buffer (15 mM EDTA, 25 mM Hepes 7.3, and 0.1% Triton X-100) containing detection reagents (0.626 nM of LANCE-Eu-W1024-anti-phosphoTyrosine antibody, PerkinElmer and 86.8 nM of Streptavidin-conjugated Dylight 650, Dyomics/ThermoFisher Scientific). After 60 minutes incubation with detection reagents, reaction plates were read on a PerkinElmer EnVision plate reader using standard TR-FRET protocol. Briefly, excitation of donor molecules (Eu-chelate:anti-phospho-antibody) with a laser light source at 337 nm produces energy that can be transferred to Dylight-650 acceptor molecules if this donor:acceptor pair is within close proximity. Fluorescence intensity at both 665 nm (acceptor) and 615 nm (donor) are measured and a TR-FRET ratio calculated for each well (acceptor intensity/donor intensity). IC50 values were determined by 4 parameter robust fit of TR-FRET ratio values vs. (Log10) compound concentrations.
Work on `CCOc1cc(C(C)(O)c2cccc(C)c2)ccc1-c1nc(C23CCC(C(=O)O)(CC2)CC3)n2ccnc(N)c12` (stereo not drawn) [Example 20, 4-(8-amino-1-{2-ethoxy-4-[1-hydroxy-1-(3-methylphenyl)ethyl]phenyl}imidazo[1,5-a]pyrazin-3-yl)bicyclo[2.2.2]octane-1-carboxylic acid] yielded an IC50 of 136 nM. `C[C@@](O)(c1ccc(-c2nc([C@H]3C[C@H]4CC[C@@H](C3)[C@H]4C(=O)O)n3ccnc(N)c23)cc1)c1cccc(C(F)(F)F)c1` [Example 25, (3-endo,8-syn)-3-[8-amino-1-(4-{(1R)-1-hydroxy-1-[3-(trifluoromethyl)phenyl]ethyl}phenyl)imidazo[1,5-a]pyrazin-3-yl]bicyclo[3.2.1]octane-8-carboxylic acid] was tested, and the IC50 was 39.9 nM. Work on `C[C@@](O)(c1ccc(-c2nc(C34CCC(C(=O)O)(CC3)C4)n3ccnc(N)c23)cc1)c1cccc(C(F)(F)F)c1` [Example 8, 4-[8-amino-1-(4-{(1R)-1-hydroxy-1-[3-(trifluoromethyl)phenyl]ethyl}phenyl)imidazo[1,5-a]pyrazin-3-yl]bicyclo[2.2.1]heptane-1-carboxylic acid] yielded an IC50 of 1.1 nM. With `C[C@@](O)(c1ccc(-c2nc(C34CCC(C(=O)O)(CC3=O)C(=O)C4)n3ccnc(N)c23)cc1)c1cccc(C(F)(F)F)c1` (stereo partly drawn) [Example 6, 4-[8-amino-1-(4-{(1R)-1-hydroxy-1-[3-(trifluoromethyl)phenyl]ethyl}phenyl)imidazo[1,5-a]pyrazin-3-yl]-2,5-dioxobicyclo[2.2.2]octane-1-carboxylic acid] the IC50 was 52 nM. In the case of `C[C@@](O)(c1ccc(-c2nc([C@@H]3C[C@@H]4[C@H](C3)[C@@H]4C(=O)O)n3ccnc(N)c23)cc1)c1cccc(C(F)(F)F)c1` [Example 35, (1R,3r,5S,6s)-3-[8-amino-1-(4-{(1R)-1-hydroxy-1-[3-(trifluoromethyl)phenyl]ethyl}phenyl)imidazo[1,5-a]pyrazin-3-yl]bicyclo[3.1.0]hexane-6-carboxylic acid], the IC50 is reported as 15.7 nM. In the case of `CC(C)[C@@]1(C(=O)O)CC[C@@H](c2nc(-c3ccc([C@@](C)(O)c4cccc(C(F)F)c4)cc3)c3c(N)ncc(Cl)n23)C1` [Example 32, (1R,3R)-3-[8-amino-5-chloro-1-(4-{(1R)-1-[3-(difluoromethyl)phenyl]-1-hydroxyethyl}phenyl)imidazo[1,5-a]pyrazin-3-yl]-1-(1-methylethyl)cyclopentanecarboxylic acid], the IC50 is reported as 41.8 nM. Compound `CC(C)[C@@H]1CC[C@H](c2nc(-c3ccc([C@@](C)(O)c4cccc(C(F)(F)F)c4)cc3)c3c(N)nccn23)C[C@@H]1C(=O)O` [Example 23, (1S,2S,5S)-5-[8-amino-1-(4-{(1R)-1-hydroxy-1-[3-(trifluoromethyl)phenyl]ethyl}phenyl)imidazo[1,5-a]pyrazin-3-yl]-2-(1-methylethyl)cyclohexanecarboxylic acid] has an IC50 of 28.7 nM. With `CC1(C)[C@@H](c2nc(-c3ccc([C@@](C)(O)c4cccc(C(F)(F)F)c4)cc3)c3c(N)nccn23)CC[C@@]1(C)C(=O)O` [Example 13, (1R,3S)-3-[8-amino-1-(4-{(1R)-1-hydroxy-1-[3-(trifluoromethyl)phenyl]ethyl}phenyl)imidazo[1,5-a]pyrazin-3-yl]-1,2,2-trimethylcyclopentanecarboxylic acid] the IC50 was 86 nM. In the case of `CC(C)[C@]1(C(=O)O)CC[C@@H](c2nc(-c3ccc([C@@](C)(O)c4cccc(C(F)F)c4)cc3)c3c(N)ncc(Cl)n23)C1` [Example 29, (1S,3R)-3-[8-amino-5-chloro-1-(4-{(1R)-1-[3-(difluoromethyl)phenyl]-1-hydroxyethyl}phenyl)imidazo[1,5-a]pyrazin-3-yl]-1-(1-methylethyl)cyclopentanecarboxylic acid], the IC50 is reported as 2.8 nM. Compound `CCOc1cc([C@@](C)(O)c2cccc(C(F)(F)F)c2)ccc1-c1nc([C@@H]2CC[C@](C)(C(=O)O)C2(C)C)n2ccnc(N)c12` [Example 28, (1S,3R)-3-[8-amino-1-(2-ethoxy-4-{(1S)-1-hydroxy-1-[3-(trifluoromethyl)phenyl]ethyl}phenyl)imidazo[1,5-a]pyrazin-3-yl]-1,2,2-trimethylcyclopentanecarboxylic acid] has an IC50 of 1.2 nM. `C[C@@](O)(c1ccc(-c2nc([C@@H]3C[C@@H]4[C@H](C3)[C@H]4C(=O)O)n3ccnc(N)c23)cc1)c1cccc(C(F)(F)F)c1` [Example 36, (1R,3R,5S,6r)-3-[8-amino-1-(4-{(1R)-1-hydroxy-1-[3-(trifluoromethyl)phenyl]ethyl}phenyl)imidazo[1,5-a]pyrazin-3-yl]bicyclo[3.1.0]hexane-6-carboxylic acid] gave an IC50 of 1.1 nM. In the case of `CC1(C)[C@H](c2nc(-c3ccc([C@@](C)(O)c4cccc(C(F)(F)F)c4)cc3)c3c(N)ncc(F)n23)CC[C@]1(C)C(=O)O` [Example 24, (1S,3R)-3-[8-amino-5-fluoro-1-(4-{(1R)-1-hydroxy-1-[3-(trifluoromethyl)phenyl]ethyl}phenyl)imidazo[1,5-a]pyrazin-3-yl]-1,2,2-trimethylcyclopentanecarboxylic acid], the IC50 is reported as 6.3 nM. `C[C@]1(C(=O)O)CC[C@@](C)(c2nc(-c3ccc([C@@](C)(O)c4cccc(C(F)(F)F)c4)cc3)c3c(N)nccn23)C1` [Example 18, (1S,3R)-3-[8-amino-1-(4-{(1R)-1-hydroxy-1-[3-(trifluoromethyl)phenyl]ethyl}phenyl)imidazo[1,5-a]pyrazin-3-yl]-1,3-dimethylcyclopentanecarboxylic acid] showed an IC50 of 178 nM. `CC(C)[C@]1(C(=O)O)CC[C@H](c2nc(-c3ccc([C@](C)(O)c4cccc(C(F)(F)F)c4)cc3)c3c(N)nccn23)C1` [Example 4, (1S,3S)-3-[8-amino-1-(4-{(1S)-1-hydroxy-1-[3-(trifluoromethyl)phenyl]ethyl}phenyl)imidazo[1,5-a]pyrazin-3-yl]-1-(1-methylethyl)cyclopentanecarboxylic acid] gave an IC50 of 1000 nM. With `CC1(C(=O)O)CCC(C)(c2nc(-c3ccc([C@@](C)(O)c4cccc(C(F)F)c4)cc3)c3c(N)nccn23)CC1` (stereo partly drawn) [Example 33, 4-[8-amino-1-(4-{(1R)-1-[3-(difluoromethyl)phenyl]-1-hydroxyethyl}phenyl)imidazo[1,5-a]pyrazin-3-yl]-1,4-dimethylcyclohexanecarboxylic acid] the IC50 was 11.4 nM. `C[C@@](O)(c1ccc(-c2nc(C3(C(=O)O)CCOCC3)n3ccnc(N)c23)cc1)c1cccc(C(F)(F)F)c1` [Example 10, 4-[8-amino-1-(4-{(1R)-1-hydroxy-1-[3-(trifluoromethyl)phenyl]ethyl}phenyl)imidazo[1,5-a]pyrazin-3-yl]tetrahydro-2H-pyran-4-carboxylic acid] gave an IC50 of 294 nM. Compound `CC1(C)[C@H](c2nc(-c3ccc([C@@](C)(O)c4cccc(C(F)F)c4)cc3)c3c(N)ncc(F)n23)CC[C@]1(C)C(=O)O` [Example 34, (1S,3R)-3-[8-amino-1-(4-{(1R)-1-[3-(difluoromethyl)phenyl]-1-hydroxyethyl}phenyl)-5-fluoroimidazo[1,5-a]pyrazin-3-yl]-1,2,2-trimethylcyclopentanecarboxylic acid] has an IC50 of 2.4 nM. In the case of `C[C@@](O)(c1ccc(-c2nc(C34CCC(C(=O)O)(CC3)CC4)n3ccnc(N)c23)cc1)c1cccc(C(F)(F)F)c1` [Example 3, 4-[8-amino-1-(4-{(1R)-1-hydroxy-1-[3-(trifluoromethyl)phenyl]ethyl}phenyl)imidazo[1,5-a]pyrazin-3-yl]bicyclo[2.2.2]octane-1-carboxylic acid], the IC50 is reported as 775 nM. `C[C@]1(C(=O)O)CC[C@](C)(c2nc(-c3ccc([C@@](C)(O)c4cccc(C(F)(F)F)c4)cc3)c3c(N)nccn23)C1` [Example 16, (1S,3S)-3-[8-amino-1-(4-{(1R)-1-hydroxy-1-[3-(trifluoromethyl)phenyl]ethyl}phenyl)imidazo[1,5-a]pyrazin-3-yl]-1,3-dimethylcyclopentanecarboxylic acid] was tested, and the IC50 was 7.6 nM. With `CC(C)[C@]1(C(=O)O)CC[C@H](c2nc(-c3ccc([C@@](C)(O)c4cccc(C(F)(F)F)c4)cc3)c3c(N)nccn23)C1` [Example 5, (1S,3S)-3-[8-amino-1-(4-{(1R)-1-hydroxy-1-[3-(trifluoromethyl)phenyl]ethyl}phenyl)imidazo[1,5-a]pyrazin-3-yl]-1-(1-methylethyl)cyclopentanecarboxylic acid] the IC50 was 19 nM. `CC1(C(=O)O)CCC(C)(c2nc(-c3ccc([C@@](C)(O)c4cccc(C(F)(F)F)c4)cc3)c3c(N)nccn23)CC1` (stereo partly drawn) [Example 1, (R)-4-(8-amino-1-(4-(1-hydroxy-1-(3-(trifluoromethyl)phenyl)ethyl)phenyl)imidazo[1,5-a]pyrazin-3-yl)-1,4-dimethylcyclohexanecarboxylic acid] gave an IC50 of 39.4 nM.
